Columns and labels:
NK1 = NK1 (Homo sapiens, UniProt P14210); test: SPR fragment library screening against NK1; assay type: binding; set-up: made in house; host or cells: Pichia pastoris; details: for SPR response: normalised relative value against NK1
Protocol: Supplementary Materials and Methods
Fragment library screening and data analysis
Met567 (soluble truncated f ragment of the MET ectodomain, residues 25- 567), NK1 and t he SPH domain were immobilized on CM5 chips by amine coupling. NK1 was diluted into 10 m M phosphate pH 7.0 and the SPH domain into 10 mM acetate pH 5.5 to a final concentration of 2.5 μM and 1 μM, respectively, for coupling. The immobilization wizard within the Biacore T100 software was set to “aim for immobiliz ed level” of 8000 RU to achieve complete saturation of the chip surface.
W ith minor deviations, the procedure and conditions outlined below were used f or a ll screening s of an in-house fragment library of 1338 members against individual target proteins. The running buffer was PBS pH 7.4, 0.05% Tween 20, 0.25% DMSO (1% DMSO for Met567). Fragments were stored as 100 mM stock solutions in DMSO. Prior to screening, fragment samples were diluted to 500 μM (1 mM f or Met567) in running buffer.
Screening was performed in 96- we ll plates at a flow rate of 30 μl min-1 with 1 min sample injection f ollowed by dissociation f or 1 min and surf ace regeneration using 1 M NaCl f or 30 […]
post-regeneration baseline exceeded the pre- sample baseline by more than 10 RU, a second regeneration cycle with 50% ethylene glycol was used. In order to be able to correct for small variations in DMSO concentration between samples, eight solvent samples ranging from 0.012 to 1.5% DMSO were injected every 40th cycle. To monitor the binding capacity of the NK1, SPH and Met567 surfaces throughout the screening, injections of 500 μM HEPES (NK1), 0.25 μM Met567 (SPH) and 0.2 μM NK1 and 1% DMSO (Met567) were carried out every 40th cycle. The flow cell temperature was 25°C. NK1 and the SPH domain were immobilized on the same chip (channels 2 and 3 respectively) and were theref ore screened in parallel. Met567 was screened separately and results are published in an accompanying paper (W in t er et al. 2015, in revision).
For data analysis, fir st, all responses were reference and solvent corrected. 1 Next, equilibrium binding for every fragment was determined and hits established by applying several filters: sensorgram shape, upper and lower threshold. Typical sensorgrams from fragment screening show “square curves” in SPR due to the fast on and off rates and fragments not showing this response were discarded from further analysis. Binding levels are represented as response units (RU) but the SPR signal is a convolution of multiple parameters including target coupling density, target -binding activity, target molecular weight and molecular weight of each injected fragment. To be able to identif y hits accurately and to be able to compare responses between different plates and targets, data were normalised against these factors. First the theoretical maximum response for each fragment was calculated using equation 1:
RRmmm = CCCCCCCC ddCdCdd× MMffmCmdCd (Equation 1)
This RUmax value diff ers for each protein target because it depends on the molecular weight of the protein and the amount of protein immobilized on the chip (coupling density). The RUmax was then used to calculate the normalised relative SPR response:
NNNNNNNNNN NNNNr NrN SSR NNNrNrNN = RRcppppcppc× 100% (Equation 2) […]
fragment should cause upon binding. 100% response would be 1:1 binding wit h levels above 100% implying over-stoichiometric binding. […]
Fragment library screening to identify small molecule binders

[1] = tested on: MET downstream signalling (Erk 1/2, Akt) in Vero cells; test: MET, Erk1/2 and Akt phosphorylation assay in NK1-stimulated Vero cells (Western blot); assay type: cell-based; details: Vero cells stimulated with NK1; compound 1 mM (lane 5), 0.1% DMSO
Protocol: We evaluated the effect of piperazine-like compounds and MB605 on Vero cells by assessing MET, Erk 1/2 and Akt phosphorylation in response to stimulation using […] NK1. MB605 was dissolved in DMSO, which limited the range of concentrations tested to ≤1 mM in order to avoid solvent effects on cell function/viability. The water-soluble piperazine-like compounds, in contrast, could be tested at concentrations up to 100 mM.
Fig. 6 Biological activity of the piperazine-like compounds and MB605. (a–e) Vero cells expressing the receptor endogenously on their cell surface were stimulated with HGF/SF or NK1 and phosphorylation of MET and downstream targets Akt and Erk1/2 was analysed. Piperazine-like compounds HEPES (a), (H)EPPS (b), MES (c), MOPS (d) and CAPS (e) were tested at 100 mM (lanes 4), 10 mM (lanes 5), 1 mM (lanes 6) and 100 μM (lanes 7) concentration in the presence of 1 nM NK1. To control for activating or inhibiting effects of the compounds independently of MET, piperazine-like compounds were tested on cells at 100 mM without stimulation by NK1 (lanes 3). Biological activity of MB605 (f) was investigated at 1 mM (lane 5), 100 μM (lane 6) and 10 μM (lane 7) in the presence of a constant concentration of DMSO (0.1%). A solvent control (0.1% DMSO, lane 3) was included in order to account for the effect of DMSO on the cells. A positive control (1 nM NK1 in the presence of 0.1% DMSO) is shown in lane 4. In all experiments, un-stimulated cells served as negative control (lanes 1) while cells stimulated with 1 nM NK1 served as positive control (lanes 2).
The ability of MB605 and the piperazine-like compounds to inhibit MET, Erk and Akt phosphorylation in the presence of NK1 was tested using mammalian Vero cells as described by Ferraris et al.[47] and further details are given in the ESI ^† section of the manuscript. […]
For MET, Erk1/2 and Akt phosphorylation assays, Vero cells were seeded at 2.1 × 10^5 cells we ll -1 (2 ml we ll -1) in 6-well plates and grown to 90% conf luence in 10% FCS/DMEM media and then switched to serum-free medium (to avoid any growth f actors present in the serum).
24 hours post starvation the cells were stimulated for 5 min at 37°C with each individual piperazine -like compounds as well as with NK1 (1 nM) pre-incubated with different concentrations of the piperazine- like compounds (100 mM, 10 mM, 1 mM and 100 μM) or MB605 (1 mM, 100 μM and 10 μM). Stimulations with either 0. 1% DMS O or 1 nM of NK1 […]
solution were used as a negative and a positive control, respectively. The cells were then washed in PBS buffer, lysed on ice f or 30 min and frozen at -80 °C until further analysis. For

Sequence of NK1 (P14210 32-210 isoform P14210-6 limits assumed): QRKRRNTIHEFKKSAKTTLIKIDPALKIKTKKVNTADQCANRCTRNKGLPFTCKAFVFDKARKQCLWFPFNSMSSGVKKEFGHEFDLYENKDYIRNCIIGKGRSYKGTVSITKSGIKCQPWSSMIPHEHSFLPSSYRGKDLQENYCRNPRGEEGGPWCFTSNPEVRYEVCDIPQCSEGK

Q: What does the source list for `O=C(O)CCc1ccco1` [MB605]?
A: Ranking order (NK1; based on fragment screening, rank among the 71 NK1 hits (ESI Tables S3-S7)): 1; SPR response (NK1; fragments 500 μM (ESI Tables S3-S7)): 215%; SPR response (NK1; initial fragment screening, fragments 500 μM (Table 3)): 215%; Activity on NK1-induced MET, Erk 1/2 and Akt phosphorylation [1]: active

From publication PMC6054100, “Exploring the chemical space of the lysine-binding pocket of the first kringle domain of hepatocyte growth factor/scatter factor (HGF/SF) yields a new class of inhibitors of HGF/SF-MET binding” (Chemical Science, 2015)
